Laboratory results reported in patent US10471050B2, “2-OXO-1,2-dihydropyridine-3,5-dicarboxamide compounds as bromodomain inhibitors” (GlaxoSmithKline Intellectual Property (No. 2) Limited, priority 2015, dated 2019).
Read-outs that look alike come from different tables or passages of the source.

Columns and labels:
[1] = molecular target: T1, BRD4 BD2 (Homo sapiens, UniProt O60885, Y97A); assay: BRD4 BD2 TR-FRET competition assay; type: binding
T1 construct: BRD4 (1-477) (Y97A) and (Y390A); made in house; host or cells: E. coli (pET15b vector)
Experimental: Bromodomain binding was assessed utilising a time resolved fluorescent resonance energy transfer (TR-FRET) competition assay. To enable this approach a known, high affinity, pan-BET interacting small molecule was labelled with Alexa Fluor® 647, which is a far-red-fluorescent dye (Reference Compound X). Reference Compound X acts as a reporter of bromodomain binding and is the acceptor fluorophore component of the TR-FRET pair. Europium chelate, conjugated to an anti-6*His antibody, was utilised as the donor fluorophore in the TR-FRET pair. […] A TR-FRET signal is generated when the donor and acceptor fluorophores are in close proximity, between 20-80 Å, which is enabled in this assay by binding of Reference Compound X to the bromodomain protein.
In order to generate a TR-FRET signal, donor fluorophore is excited by a laser at λ337 nm, which subsequently leads to emission at λ618 nm. If the acceptor fluorophore is in close proximity then energy transfer can occur, which leads to emission of Alexa Fluor® 647 at λ665 nm. In the presence of competitor compound, Reference Compound X can be displaced from binding to the bromodomain. If displacement occurs, the acceptor fluorophore is no longer in proximity to the donor fluorophore, which prevents fluorescent energy transfer and, subsequently, a loss of Alexa Fluor® 647 emission at λ665 nm.
(§1) The competition of the compounds of formula (I) with Reference Compound X for binding to the BET family (BRD2, BRD3, BRD4 and BRDT) was assessed using protein truncates spanning both bromodomain 1 (BD1) and bromodomain 2 (BD2). In order to monitor differential binding to either BD1 or BD2, single residue mutations of key tyrosines to alanine were made in the acetyl lysine binding pockets. To validate this approach, a double residue mutant tandem domain protein was produced for each of the BET family members. Utilising a Fluorescence Polarisation approach, binding affinities for each of the single and double mutants for Reference Compound X were determined.
Final purification was completed by Superdex 200 prep grade size exclusion column. Purified protein was stored at −80° C. in 20 mM HEPES pH 7.5 and 100 mM NaCl.
All assay components were dissolved in an assay buffer composing of 50 mM HEPES pH7.4, 50 mM NaCl, 5% Glycerol, 1 mM DTT and 1 mM CHAPS. Reference Compound X was diluted, in assay buffer containing 20 nM single mutant, tandem bromodomain protein, to a concentration equivalent to 2*Kd for this bromodomain. The solution containing bromodomain and Reference Compound X was added to dose response dilutions of test compound or DMSO vehicle (a maximum of 0.5% DMSO is used in this assay) in Greiner 384 well black low volume microtitre plates and subsequently incubated for 30 minutes at room temperature. An equal volume of 3 nM of anti-6*His Europium chelate was added to all wells, followed by a further 30 minute incubation at room temperature. TR-FRET was detected using a Perkin Elmer Multimode plate reader, by exciting the donor fluorophore at λ337 nm and subsequently, after a delay of 50 μsecs, measuring emission of the donor and acceptor fluorophores at λ615 nm and λ665 nm, respectively. In order to control these assays, 16 replicates each of uninhibited (DMSO vehicle) and inhibited (10*IC50 concentrations of Example 11 of WO 2011/054846A1) TR-FRET assays were included on every microtitre plate.
cA four parameter curve fit of the following form was then applied: y=a+((b−a)/(1+(10^x/10^c)^d)
Where ‘a’ is the minimum, ‘b’ is the Hill slope, ‘c’ is the pIC50 and ‘d’ is the maximum.

[2] = test system: BET family (BRD2, BRD3, BRD4 and BRDT) tandem bromodomain proteins, Tyr to Ala mutants; assay: Fluorescence Polarisation binding of Reference Compound X to single and double mutant tandem BET proteins; parameters: species or system Human
Experimental: as §1, with “determined. […] The affinities of the single mutated bromdomain tandem proteins for Reference Compound X were equi-potent with the corresponding non-mutated BET protein. […] In the TR-FRET competition assay, Reference Compound X is used at a concentration that is equivalent to the Kd for the non-mutated bromodomain, which ensures that no binding at the mutated bromodomain is detected.” for “determined.”
Protein production: Recombinant Human Bromodomains [(BRD2 (1-473) (Y113A) and (Y386A), BRD3 (1-435) (Y73A) and (Y348A) BRD4 (1-477) (Y97A) and (Y390A) and BRDT (1-397) (Y66A) and (Y309A)] were expressed in E. coli cells (in pET15b vector for BRD2/3/4 and in pET28a vector for BRDT) with a 6-His tag at the N-terminal. The His-tagged Bromodomain pellet was resuspended in 50 mM HEPES (pH7.5), 300 mM NaCl, 10 mM imidazole & 1 μl/ml protease inhibitor cocktail and extracted from the E. coli cells using sonication and purified using a nickel sepharose high performance column, the proteins were washed and then eluted with a linear gradient of 0-500 mM imidazole with buffer 50 mM HEPES (pH7.5), 150 mM NaCl, 500 mM imidazole, over 20 column volumes. Final purification was completed by Superdex 200 prep grade size exclusion column. Purified protein was stored at −80° C. in 20 mM HEPES pH 7.5 and 100 mM NaCl. Protein identity was confirmed by peptide mass fingerprinting and predicted molecular weight confirmed by mass spectrometry.

[3] = single mutant tandem BRD4, read-out: pIC50 in the BRD4 BD2 assay (converted)

| IC50 [1, 3] | Structure (SMILES) | other results |
| --- | --- | --- |
| 100 to 1000 nM | CNC(=O)c1cc(C(=O)NCCc2cnn(C)c2)cn(Cc2ccccc2)c1=O [Example 52, 1-Benzyl-N^3-methyl-N^5-(2-(1-methyl-1H-pyrazol-4-yl)ethyl)-2-oxo-1,2-dihydropyridine-3,5-dicarboxamide] |  |
| 1000 to 100000 nM | CNC(=O)c1cc(C(=O)NC)c(=O)n(Cc2cccc(C#N)c2)c1 [Example 43, 1-(3-Cyanobenzyl)-N^3,N^5-dimethyl-2-oxo-1,2-dihydropyridine-3,5-dicarboxamide] |  |
| 100 to 1000 nM | CCNC(=O)c1cc(C(=O)NC)c(=O)n(Cc2cccc(C)c2F)c1 [Example 22, N^5-Ethyl-1-(2-fluoro-3-methylbenzyl)-N^3-methyl-2-oxo-1,2-dihydropyridine-3,5-dicarboxamide] |  |
| 100 to 1000 nM | CNC(=O)c1cc(C(=O)NCCc2ccn[nH]2)cn(Cc2ccccc2)c1=O [Example 50, N^5-(2-(1H-Pyrazol-5-yl)ethyl)-1-benzyl-N^3-methyl-2-oxo-1,2-dihydropyridine-3,5-dicarboxamide] |  |
| 100 to 1000 nM | CNC(=O)CCNC(=O)c1cc(C(=O)NC)c(=O)n(Cc2ccccc2)c1 [Example 35, 1-Benzyl-N^3-methyl-N^5-(3-(methylamino)-3-oxopropyl)-2-oxo-1,2-dihydropyridine-3,5-dicarboxamide] |  |
| 100 to 1000 nM | CNC(=O)c1cc(C(=O)Nc2ccn(C)n2)cn(Cc2ccccc2)c1=O [Example 51, 1-Benzyl-N^3-methyl-N^5-(1-methyl-1H-pyrazol-3-yl)-2-oxo-1,2-dihydropyridine-3,5-dicarboxamide] |  |
| 100 to 1000 nM | CNC(=O)c1cc(C(=O)NCCc2cccnc2)cn(Cc2ccccc2)c1=O [Example 40, 1-Benzyl-N^3-methyl-2 oxo-N^5-(2-(pyridin-3-yl)ethyl)-1,2-dihydropyridine-3,5-dicarboxamide] |  |

Continued, compound first:

| Structure (SMILES) | IC50 [1, 3] | other results |
| --- | --- | --- |
| CNC(=O)c1cc(C(=O)NCCCC(=O)OC)cn(Cc2ccccc2)c1=O [Example 9, Methyl 4-(1-benzyl-5-(methylcarbamoyl)-6-oxo-1,6-dihydropyridine-3-carboxamido)butanoate] | 100 to 1000 nM |  |
| COc1ccc2c(c1)C(c1ccc(Cl)cc1)=N[C@@H](CC(=O)NCCCCCNC(=O)CCCCCC1(C)/C(=C/C=C/C=C/C3=[N+](CCCCS(=O)(=O)O)c4ccc(S(=O)(=O)O)cc4C3(C)C)N(CCCCS(=O)(=O)[O-])c3ccc(S(=O)(=O)O)cc31)c1nnc(C)n1-2 (some centres unmarked) [Reference Compound X] |  | reduction in Kd, double mutant tandem proteins versus non mutated wild type tandem BET proteins ([2]; double residue Tyr to Ala mutant tandem protein of each BET family member): > 1000 fold; affinity of single mutated bromodomain tandem proteins versus corresponding non-mutated BET protein ([2]; single Tyr to Ala mutants): equi-potent; reduction of Kd of the interaction between the mutated bromodomain and Reference Compound X ([2]; single mutation of Tyrosine to Alanine): > 1000 fold |
| CNC(=O)c1cc(C(=O)NCCc2cn[nH]c2)cn(Cc2cccc(OCCO)c2)c1=O [Example 21, N^5-(2-(1H-pyrazol-4-yl)ethyl)-1-(3-(2-hydroxyethoxy)benzyl)-N^3-methyl-2-oxo-1,2-dihydropyridine-3,5-dicarboxamide] | 100 to 1000 nM |  |
| CNC(=O)c1cc(C(=O)NCCCOC)cn(Cc2ccccc2)c1=O [Example 42, 1-Benzyl-N^5-(3-methoxypropyl)-N^3-methyl-2-oxo-1,2-dihydropyridine-3,5-dicarboxamide] | 100 to 1000 nM |  |
| CNC(=O)c1cc(C(=O)NCCCNC(=O)OC(C)(C)C)cn(Cc2ccccc2)c1=O [Example 6, tert-Butyl (3-(1-benzyl-5-(methylcarbamoyl)-6-oxo-1,6-dihydropyridine-3-carboxamido)propyl)carbamate] | 100 to 1000 nM |  |
| CNC(=O)c1cc(C(=O)NCCCN(C)C)cn(Cc2ccccc2)c1=O [Example 47, 1-Benzyl-N^5-(3-(dimethylamino)propyl)-N^3-methyl-2-oxo-1,2-dihydropyridine-3,5-dicarboxamide] | 100 to 1000 nM |  |
| CNC(=O)c1cc(C(=O)NCCc2c[nH]cn2)cn(Cc2cccc3[nH]ccc23)c1=O [Example 24, N^5-(2-(1H-Imidazol-4-yl)ethyl)-1-((1H-indol-4-yl)methyl)-N^3-methyl-2-oxo-1,2-dihydropyridine-3,5-dicarboxamide] | ≤ 100 nM |  |
| CNC(=O)c1cc(C(=O)NCCCN)cn(Cc2ccccc2)c1=O [Example 38, N^5-(3-Aminopropyl)-1-benzyl-N^3-methyl-2-oxo-1,2-dihydropyridine-3,5-dicarboxamide] | 100 to 1000 nM |  |
| CCNC(=O)c1cc(C(=O)NC)c(=O)n([C@H](C)c2ccccc2)c1 [Example 16, (R)-N^5-Ethyl-N^3-methyl-2-oxo-1-(1-phenylethyl)-1,2-dihydropyridine-3,5-dicarboxamide] | 100 to 1000 nM |  |
| CNC(=O)c1cc(C(=O)NCCCc2ncc[nH]2)cn(Cc2ccccc2)c1=O [Example 11, N^5-(3-(1H-Imidazol-2-yl)propyl)-1-benzyl-N^3-methyl-2-oxo-1,2-dihydropyridine-3,5-dicarboxamide] | ≤ 100 nM | IC50 ([1]; average of N recorded values, read-out: BRD4 BD2 IC50 (average value) (converted)): 63.1 nM |
